The record followed here is patent US10150755B2, “ASK1 inhibitor compounds and uses thereof” (Seal Rock Therapeutics, Inc., priority 2017, dated 2018).

Bounds are passed on as bounds.

As a reminder, the IC50 is the concentration at which inhibition is half-maximal. Read a high IC50 as lower potency.

Chain of ASK1 (Q99683 649-946 limits assumed): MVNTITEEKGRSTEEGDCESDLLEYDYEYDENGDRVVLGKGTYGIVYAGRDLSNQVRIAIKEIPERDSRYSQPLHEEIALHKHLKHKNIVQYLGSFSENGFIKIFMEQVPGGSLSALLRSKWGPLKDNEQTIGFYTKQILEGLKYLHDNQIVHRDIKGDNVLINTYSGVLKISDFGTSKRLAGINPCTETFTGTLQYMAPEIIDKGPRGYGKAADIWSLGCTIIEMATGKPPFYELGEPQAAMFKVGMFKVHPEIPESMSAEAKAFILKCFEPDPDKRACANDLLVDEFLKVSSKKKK

This experiment addresses ASK1 (Homo sapiens (Human), UniProt Q99683). Briefly: ASK1 Kinase Assay (Promega ASK1 Kinase Enzyme System, ADP-Glo). The note with it: enzyme 50 nM, ATP 10 μM. The class given is biochemical. The method, then: The ASK1 enzymatic assay was run following Promega ASK1 Kinase Enzyme System (Cat #V3881). The kit provides the protocol, enzymes and all reagents necessary to run an assay. Firstly, the compounds, enzyme, substrate and ATP were diluted in provided assay buffer. The final concentration of the enzyme was 50 nM, substrate (Myelin basic protein) 1 μg/ml and ATP 10 μM. The compound and the enzyme were pre-incubated in a 384 well white solid bottom plate (Greiner, Cat#784075) for 10 minutes. After incubation, the substrate and ATP were added and incubated for further 60 minutes. After 60 minutes, ADP-Glo™ was added and plate was incubated for another 40 minutes. After 40 minutes, Kinase Detection Reagent was added and the plate was incubated for 45 minutes. After 45 minutes, plate was read on Perkin Elmer EnVision using luminescence read (0.5 seconds/well).
In general terms: In ADP-Glo the light output rises with the ADP produced.
For the compound `CNC(=O)c1ccc2c(c1)CN(c1cccc(-c3nncn3C3CC3)n1)C2=O` [Compound 3, 2-(6-(4-cyclopropyl-4H-1,2,4-triazol-3-yl)pyridin-2-yl)-N-methyl-1-oxoisoindoline-5-carboxamide], the half-inhibitory concentration (IC50) is less than 200 nM.
As for `COCCNC(=O)c1ccc2c(c1)CN(c1cccc(-c3nncn3C3CC3)n1)C2=O` [Compound 4, 2-(6-(4-cyclopropyl-4H-1,2,4-triazol-3-yl)pyridin-2-yl)-N-(2-methoxyethyl)-1-oxoisoindoline-5-carboxamide], the figure is less than 200 nM; as for `O=C(NCCn1ccnc1)c1ccc2c(c1)CN(c1cccc(-c3nncn3C3CC3)n1)C2=O` [Compound 5, N-(2-(1H-imidazol-1-yl)ethyl)-2-(6-(4-cyclopropyl-4H-1,2,4-triazol-3-yl)pyridin-2-yl)-1-oxoisoindoline-5-carboxamide], less than 200 nM.
Regarding `O=C1c2ccc(C(=O)n3cccn3)cc2CN1c1cccc(-c2nncn2C2CC2)n1` [Compound 6, 2-(6-(4-cyclopropyl-4H-1,2,4-triazol-3-yl)pyridin-2-yl)-5-(1H-pyrazole-1-carbonyl)isoindolin-1-one], the IC50 was less than 200 nM.
In the case of `O=C(NC1CCOCC1)c1ccc2c(c1)CN(c1cccc(-c3nncn3C3CC3)n1)C2=O` [Compound 9, 2-(6-(4-cyclopropyl-4H-1,2,4-triazol-3-yl)pyridin-2-yl)-1-oxo-N-(tetrahydro-2H-pyran-4-yl)isoindoline-5-carboxamide] it was less than 200 nM.
In the case of `O=C(c1ccc2c(c1)CN(c1cccc(-c3nncn3C3CC3)n1)C2=O)N1CCCC1` [Compound 18, 2-(6-(4-cyclopropyl-4H-1,2,4-triazol-3-yl)pyridin-2-yl)-5-(pyrrolidine-1-carbonyl)isoindolin-1-one] it was less than 200 nM; in that of `O=C(c1ccc2c(c1)CN(c1cccc(-c3nncn3C3CC3)n1)C2=O)N1CCC1` [Compound 19, 5-(azetidine-1-carbonyl)-2-(6-(4-cyclopropyl-4H-1,2,4-triazol-3-yl)pyridin-2-yl)isoindolin-1-one], less than 200 nM.
As for `O=C1CN(C(=O)c2ccc3c(c2)CN(c2cccc(-c4nncn4C4CC4)n2)C3=O)CCN1` [Compound 20, 2-(6-(4-cyclopropyl-4H-1,2,4-triazol-3-yl)pyridin-2-yl)-5-(3-oxopiperazine-1-carbonyl)isoindolin-1-one], the figure is less than 200 nM; as for `O=C(c1ccc2c(c1)CN(c1cccc(-c3nncn3C3CC3)n1)C2=O)N1C[C@H]2CC[C@@H](C1)O2` [Compound 21, 5-((1R,5S)-8-oxa-3-azabicyclo[3.2.1]octane-3-carbonyl)-2-(6-(4-cyclopropyl-4H-1,2,4-triazol-3-yl)pyridin-2-yl)isoindolin-1-one], less than 200 nM.
The compound `CO[C@@H]1CCN(C(=O)c2ccc3c(c2)CN(c2cccc(-c4nncn4C4CC4)n2)C3=O)C1` [Compound 22, (R)-2-(6-(4-cyclopropyl-4H-1,2,4-triazol-3-yl)pyridin-2-yl)-5-(3-methoxypyrrolidine-1-carbonyl)isoindolin-1-one] showed an IC50 of less than 200 nM.
As for `COC(=O)C1CCN(C(=O)c2ccc3c(c2)CN(c2cccc(-c4nncn4C4CC4)n2)C3=O)CC1` [Compound 23, methyl 1-(2-(6-(4-cyclopropyl-4H-1,2,4-triazol-3-yl)pyridin-2-yl)-1-oxoisoindoline-5-carbonyl)piperidine-4-carboxylate], the figure is less than 200 nM; as for `O=C(c1ccc2c(c1)CN(c1cccc(-c3nncn3C3CC3)n1)C2=O)N1CCSCC1` [Compound 24, 2-(6-(4-cyclopropyl-4H-1,2,4-triazole-3-yl)pyridin-2-yl)-5-(thiomorpholine-4-carbonyl)isoindolin-1-one], less than 200 nM; as for `CSC1CCN(C(=O)c2ccc3c(c2)CN(c2cccc(-c4nncn4C4CC4)n2)C3=O)CC1` [Compound 25, 2-(6-(4-cyclopropyl-4H-1,2,4-triazol-3-yl)pyridin-2-yl)-5-(4-(methylthio)piperidine-1-carbonyl)isoindolin-1-one], less than 200 nM.
In the case of `O=C(c1cc2c(cc1Cl)C(=O)N(c1cccc(-c3nncn3C3CC3)n1)C2)N1CCOCC1` [Compound 26, 6-chloro-2-(6-(4-cyclopropyl-4H-1,2,4-triazol-3-yl)pyridin-2-yl)-5-(morpholine-4-carbonyl)isoindolin-1-one] it was less than 200 nM.
In the case of `O=C1c2ccc(-c3cc[nH]n3)cc2CN1c1cccc(-c2nncn2C2CC2)n1` [Compound 28, 2-(6-(4-cyclopropyl-4H-1,2,4-triazol-3-yl)pyridin-2-yl)-5-(1H-pyrazol-3-yl)isoindolin-1-one] it was less than 200 nM.
In turn, `Cn1nccc1-c1ccc2c(c1)CN(c1cccc(-c3nncn3C3CC3)n1)C2=O` [Compound 29, 2-(6-(4-cyclopropyl-4H-1,2,4-triazol-3-yl)pyridin-2-yl)-5-(1-methyl-1H-pyrazol-5-yl)isoindolin-1-one] came in with an IC50 of less than 200 nM.
In the case of `Cn1cnc(-c2ccc3c(c2)CN(c2cccc(-c4nncn4C4CC4)n2)C3=O)c1` [Compound 30, 2-(6-(4-cyclopropyl-4H-1,2,4-triazol-3-yl)pyridin-2-yl)-5-(1-methyl-1H-imidazol-4-yl)isoindolin-1-one] it was less than 200 nM; in that of `Nc1ccc2c(c1)CN(c1cccc(-c3nncn3C3CC3)n1)C2=O` [Compound 31, 5-amino-2-(6-(4-cyclopropyl-4H-1,2,4-triazol-3-yl)pyridin-2-yl)isoindolin-1-one], less than 200 nM.
As for `O=C1c2ccc(NC(=O)C3(c4ccccc4)CC3)cc2CN1c1cccc(-c2nncn2C2CC2)n1` [Compound 33, N-(2-(6-(4-Cyclopropyl-4H-1,2,4-triazol-3-yl)pyridin-2-yl)-1-oxoisoindolin-5-yl)-1-phenylcyclopropane-1-carboxamide], the figure is 200 to 1000 nM; as for `CCNc1ccc2c(c1)CN(c1cccc(-c3nncn3C3CC3)n1)C2=O` [Compound 35, 2-(6-(4-cyclopropyl-4H-1,2,4-triazol-3-yl)pyridin-2-yl)-5-(ethylamino)isoindolin-1-one], less than 200 nM.
In the case of `Cn1cncc1-c1ccc2c(c1)C(=O)N(c1cccc(-c3nncn3C3CC3)n1)C2` [Compound 36, 2-(6-(4-cyclopropyl-4H-1,2,4-triazol-3-yl)pyridin-2-yl)-6-(1-methyl-1H-imidazol-5-yl)isoindolin-1-one] it was less than 200 nM; in that of `O=C1c2cc(-n3ccnc3)ccc2CN1c1cccc(-c2nncn2C2CC2)n1` [Compound 37, 2-(6-(4-cyclopropyl-4H-1,2,4-triazol-3-yl)pyridin-2-yl)-6-(1H-imidazol-1-yl)isoindolin-1-one], less than 200 nM.
With `O=C1c2cc(-n3cnc4ccccc43)ccc2CN1c1cccc(-c2nncn2C2CC2)n1` [Compound 38, 6-(1H-Benzo[d]imidazol-1-yl)-2-(6-(4-cyclopropyl-4H-1,2,4-triazol-3-yl)pyridin-2-yl)isoindolin-1-one], the IC50 is less than 200 nM.
In the case of `Cn1ccc(-c2ccc3c(c2)C(=O)N(c2cccc(-c4nncn4C4CC4)n2)C3)n1` [Compound 39, 2-(6-(4-cyclopropyl-4H-1,2,4-triazol-3-yl)pyridin-2-yl)-6-(1-methyl-1H-pyrazol-3-yl)isoindolin-1-one] it was less than 200 nM; in that of `Cc1ccc(-c2ccc3c(c2)C(=O)N(c2cccc(-c4nncn4C4CC4)n2)C3)cn1` [Compound 42, 2-(6-(4-cyclopropyl-4H-1,2,4-triazol-3-yl)pyridin-2-yl)-6-(6-methylpyridin-3-yl)isoindolin-1-one], less than 200 nM.
As for `COc1ccc(-c2ccc3c(c2)C(=O)N(c2cccc(-c4nncn4C4CC4)n2)C3)cn1` [Compound 45, 2-(6-(4-cyclopropyl-4H-1,2,4-triazol-3-yl)pyridin-2-yl)-6-(6-methoxypyridin-3-yl)isoindolin-1-one], the figure is less than 200 nM; as for `O=C1c2cc(-c3cnn(C4CC4)c3)ccc2CN1c1cccc(-c2nncn2C2CC2)n1` [Compound 47, 6-(1-cyclopropyl-1H-pyrazol-4-yl)-2-(6-(4-cyclopropyl-4H-1,2,4-triazol-3-yl)pyridin-2-yl)isoindolin-1-one], less than 200 nM.
In the case of `O=C1c2cc(-c3cnccc3F)ccc2CN1c1cccc(-c2nncn2C2CC2)n1` [Compound 48, 2-(6-(4-cyclopropyl-4H-1,2,4-triazol-3-yl)pyridin-2-yl)-6-(4-fluoropyridin-3-yl)isoindolin-1-one] it was less than 200 nM; in that of `O=C1c2cc(-c3cnccc3Cl)ccc2CN1c1cccc(-c2nncn2C2CC2)n1` [Compound 49, 6-(4-chloropyridin-3-yl)-2-(6-(4-cyclopropyl-4H-1,2,4-triazol-3-yl)pyridin-2-yl)isoindolin-1-one], less than 200 nM.
Compound `O=C1c2cc(-c3ccncc3)ccc2CN1c1cccc(-c2nncn2C2CC2)n1` [Compound 50, 2-(6-(4-cyclopropyl-4H-1,2,4-triazol-3-yl)pyridin-2-yl)-6-(pyridin-4-yl)isoindolin-1-one] had an IC50 of less than 200 nM.
Compound `Cc1ncc(-c2ccc3c(c2)C(=O)N(c2cccc(-c4nncn4C4CC4)n2)C3)s1` [Compound 51, 2-(6-(4-cyclopropyl-4H-1,2,4-triazol-3-yl)pyridin-2-yl)-6-(2-methylthiazol-5-yl)isoindolin-1-one] displayed an IC50 of less than 200 nM.
In the case of `Cc1ncccc1-c1ccc2c(c1)C(=O)N(c1cccc(-c3nncn3C3CC3)n1)C2` [Compound 52, 2-(6-(4-cyclopropyl-4H-1,2,4-triazol-3-yl)pyridin-2-yl)-6-(2-methylpyridin-3-yl)isoindolin-1-one] it was less than 200 nM.
In the case of `O=C1c2cc(-c3cccnc3F)ccc2CN1c1cccc(-c2nncn2C2CC2)n1` [Compound 53, 2-(6-(4-cyclopropyl-4H-1,2,4-triazol-3-yl)pyridin-2-yl)-6-(2-fluoropyridin-3-yl)isoindolin-1-one] it was less than 200 nM.
